Results: patent US8513266B2, “Methods of treating cancer using pyridopyrimidinone inhibitors of PI3K alpha” (priority 2007, dated 2013)

What was measured:
Assay type in all cases: in vivo
[1] = tested on: MCF7 human mammary adenocarcinoma cells; experiment: MCF7 breast cancer xenograft model; settings: MCF7 tumors at end of study, 30 mg/kg qd each agent, alone or combined
Method: (§1) Female and male athymic nude mice (NCr) 5-8 weeks of age and weighing approximately 20-25 g were used in the following model. Prior to initiation of a study, the animals were allowed to acclimate for a minimum of 48 h. During these studies, animals were provided food and water ad libitum and housed in a room conditioned at 70-75° F. and 60% relative humidity. A 12 h light and 12 h dark cycle was maintained with automatic timers. All animals were examined daily for compound-induced or tumor-related deaths.
MCF7 human mammary adenocarcinoma cells were cultured in vitro in DMEM (Cellgro) supplemented with 10% Fetal Bovine Serum (Cellgro), Penicillin-Streptomycin and non-essential amino acids at 37° C. in a humidified 5% CO2 atmosphere. […] A transponder was implanted into each mouse for identification and data tracking, and animals were monitored daily for clinical symptoms and survival. During the dosing period, the tumor weight of each animal was determined twice weekly and the body weight of each animal was measured daily. […]
For subcutaneous or intradermal tumors, the mean tumor weight of each animal in the respective control and treatment groups was determined twice weekly during the study. Tumor weight (TW) was determined by measuring perpendicular diameters with a caliper, using the following formula: tumor weight (mg)=[tumor volume=length (mm)×width^2 (mm^2)]/2 […]

[2] = tested on: A549 human lung carcinoma cells; experiment: A549 non-small cell lung cancer xenograft model; settings: Compound A 30 mg/kg qd
Method: as §1
(§2) A549 human lung carcinoma cells were cultured in vitro in DMEM (Mediatech) supplemented with 10% Fetal Bovine Serum (Hyclone), PenicilliN-Streptomycin and non-essential amino acids at 37° C. in a humidified 5% CO2 atmosphere. […] A transponder was implanted in each mouse for identification, and animals were monitored daily for clinical symptoms and survival. Body weights were recorded daily. […]
(§3) For subcutaneous or intradermal tumors, the mean tumor weight of each animal in the respective control and treatment groups was determined twice weekly during the study. Tumor weight (TW) was determined by measuring perpendicular diameters with a caliper, using the following formula: tumor weight (mg)=[tumor volume=length (mm)×width^2 (mm^2)]/2
(§4) Percent inhibition of tumor growth (TGI) is determined with the following formula: […]

[3] = tested on: PC-3 human prostate adenocarcinoma cells
Method: as §1
as §2, with “PC-3” for “A549”, “prostate adenocarcinoma” for “lung carcinoma”, “20%” for “10%”, “Penicillin-Streptomycin” for “PenicilliN-Streptomycin”
as §3, §4

[4] = tested on: Calu-6 human lung anaplastic carcinoma cells; experiment: Calu-6 non-small cell lung cancer xenograft model; settings: Calu-6 xenograft, single agents; Compound A 100 mg/kg q2d or 30 mg/kg bid oral; carboplatin 50 mg/kg i.v. q4d
Method: as §1
as §2, with “Calu-6” for “A549”, “lung anaplastic” for “lung”, “Penicillin-Streptomycin” for “PenicilliN-Streptomycin”, “humidified,” for “humidified”
as §3, §4

[5] = tested on: MDA-MB-468 human breast adenocarcinoma cells; settings: MDA-MB-468 xenograft; erlotinib 100 mg/kg qd oral; Compound A 100 mg/kg q2d oral; combination of the two
Method: as §1, with “deaths. […]” for “deaths.”
as §3
Percent inhibition of tumor growth (TGI) is determined with the following formula:
[formula] • where X0=average TW of all tumors on group day • Xf=TW of treated group on Day f • Yf=TW of vehicle control group on Day f If tumors regress below their starting sizes, then the percent tumor regression is determined with the following formula:
[formula] Tumor size is calculated individually for each tumor to obtain a mean±SEM value for each experimental group. […]

COc1cc2c(Nc3ccc(Cl)c(Cl)c3F)ncnc2cc1OC[C@@H]1C[C@@H]2CN(C)C[C@@H]2C1 [Compound B, N-(3,4-dichloro-2-fluorophenyl)-7-({[(3aR,5r,6aS)-2-methyloctahydrocyclopenta-[c]pyrrol-5-yl]methyl}oxy)-6-(methyloxy)quinazolin-4-amine]
induction of TUNEL-positive (apoptotic) cells ([1]; compared to vehicle control): did not result in a significant induction
decrease in CD31-positive tumor vessels (microvessel density, MVD) [1]: 31%
tumor growth inhibition (TGI) (FIG. 4a) ([2]; Compound B 30 mg/kg qd oral for 18 days, combination: Compound B followed by Compound A after about six hours): 80%
dose skipping ([2]; Compound B 30 mg/kg qd, alone or co-administered): no dose omission

CO[C@H]1C[C@@H]2CC[C@@H](C)[C@@](O)(O2)C(=O)C(=O)N2CCCC[C@H]2C(=O)O[C@H]([C@H](C)C[C@@H]2CC[C@@H](O)[C@H](OC)C2)CC(=O)[C@H](C)/C=C(\C)[C@@H](O)[C@@H](OC)C(=O)[C@H](C)C[C@H](C)/C=C/C=C/C=C/1C [rapamycin, Rapamycin]
decrease in the fraction of proliferating cells (Ki67) (FIG. 6) ([3]; PC-3 tumors resected at end of efficacy study, Compound A 100 mg/kg q2d, rapamycin, monotherapy or combined): 77%

N.N.O=C([O-])C1(C(=O)[O-])CCC1.[Pt+2] [carboplatin]
tumor growth inhibition (FIG. 3) [4]: Significant tumor growth inhibition

C#Cc1cccc(Nc2ncnc3cc(OCCOC)c(OCCOC)cc23)c1 [erlotinib]
tumor growth inhibition (FIG. 5) [5]: significant but incomplete tumor growth inhibition

CC(=O)O[C@H]1C(=O)[C@@]2(C)[C@H]([C@H](OC(=O)c3ccccc3)[C@]3(O)C[C@H](OC(=O)[C@H](O)[C@@H](NC(=O)c4ccccc4)c4ccccc4)C(C)=C1C3(C)C)[C@]1(OC(C)=O)CO[C@@H]1C[C@@H]2O [taxol, Paclitaxel]
tumor growth inhibition (FIG. 1) ([3]; PC-3 xenograft, Compound A 100 mg/kg q2d or 30 mg/kg bid oral, taxol 7.5 mg/kg i.v. twice weekly, combination of either dose of Compound A with taxol): Comparable tumor growth inhibition
